Test results taken from patent publication US8455475B2 (Gruenenthal GmbH, priority 2009, dated 2013).

molecular target: T1, rat B1R (bradykinin receptor 1) (Rattus norvegicus, UniProt P97583); experiment: FLIPR Ca2+ assay (Fluo-4) on CHO K1 cells stably transfected with the B1R gene of the rat (rB1R cells): % inhibition at 10 μM / IC50, agonist Des-Arg9-bradykinin; type: cell-based; conditions: CHO-K1, rat B1R
T1 construct: expressed in transfected cells; host or cells: CHO K1 cells
T1 sequence (P97583 1-337): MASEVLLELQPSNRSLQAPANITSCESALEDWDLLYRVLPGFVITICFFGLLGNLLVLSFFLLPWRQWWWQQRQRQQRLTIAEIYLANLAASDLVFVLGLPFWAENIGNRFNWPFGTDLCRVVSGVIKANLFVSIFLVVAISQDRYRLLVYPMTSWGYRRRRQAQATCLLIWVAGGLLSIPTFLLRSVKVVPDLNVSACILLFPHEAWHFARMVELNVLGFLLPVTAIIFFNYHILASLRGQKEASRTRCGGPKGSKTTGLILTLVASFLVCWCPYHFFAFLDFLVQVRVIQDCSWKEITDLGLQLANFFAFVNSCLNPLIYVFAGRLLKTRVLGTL
Outline: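 Peak fluorescence counts read on FLIPR (λex 488, λem 540 nm) after two additions: compound first, then agonist at EC80 after 10–20 min. Human line challenged with Lys-Des-Arg9-bradykinin, rat line with Des-Arg9-bradykinin. Suppression of Ca2+ inflow expressed as % of maximum inhibition.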

Row | Structure (SMILES) | inhibition at 10 µM [%]
1 | COc1cccc(F)c1CN1CCC2(CC1)CCN(C(=O)c1ccc3c(c1)C(NC(=O)c1cc(C(F)(F)F)ccc1Cl)CC3)CC2 (stereo not shown) [IND_CC-649, 2-Chloro-N-[6-[9-[(2-fluoro-6-methoxy-phenyl)-methyl]-3,9-diazaspiro[5.5]-undecane-3-carbonyl]-2,3-dihydro-1H-inden-1-yl]-5-(trifluoromethyl)benzamide] | 76
2 | N#Cc1ccc(CN2CCC3(CC2)CCN(C(=O)c2ccc4c(c2)C(NC(=O)c2cc(Cl)ccc2F)CC4)C3)cc1 (stereo not shown) [IND_CC-650, 5-Chloro-N-[6-[8-[(4-cyano-phenyl)-methyl]-2,8-diazaspiro[4.5]decane-2-carbonyl]-2,3-dihydro-1H-inden-1-yl]-2-fluoro-benzamide] | 54
3 | N#Cc1cccc(CN2CCC3(CC2)CCN(C(=O)c2ccc4c(c2)C(NC(=O)c2cc(Cl)ccc2F)CC4)C3)c1 (stereo not shown) [IND_CC-651, 5-Chloro-N-[6-[8-[(3-cyano-phenyl)-methyl]-2,8-diazaspiro[4.5]decane-2-carbonyl]-2,3-dihydro-1H-inden-1-yl]-2-fluoro-benzamide] | 76
4 | O=C(NC1CCc2ccc(C(=O)N3CCC4(CCN(Cc5csnn5)CC4)CC3)cc21)c1cc(Cl)ccc1F (stereo not shown) [IND_CC-652, 5-Chloro-2-fluoro-N-[6-[9-([1,2,3]thiadiazol-4-yl-methyl)-3,9-diazaspiro[5.5]undecane-3-carbonyl]-2,3-dihydro-1H-inden-1-yl]-benzamide] | 53
5 | N#Cc1ccc(CN2CCC3(CC2)CCN(C(=O)c2ccc4c(c2)C(NC(=O)c2cc(Cl)ccc2F)CC4)CC3)cc1 (stereo not shown) [IND_CC-653, 5-Chloro-N-[6-[9-[(4-cyano-phenyl)-methyl]-3,9-diazaspiro[5.5]undecane-3-carbonyl]-2,3-dihydro-1H-inden-1-yl]-2-fluoro-benzamide] | 64
6 | N#Cc1cccc(CN2CCC3(CC2)CCN(C(=O)c2ccc4c(c2)C(NC(=O)c2cc(Cl)ccc2F)CC4)CC3)c1 (stereo not shown) [IND_CC-654, 5-Chloro-N-[6-[9-[(3-cyano-phenyl)-methyl]-3,9-diazaspiro[5.5]undecane-3-carbonyl]-2,3-dihydro-1H-inden-1-yl]-2-fluoro-benzamide] | 60
7 | Cc1nc[nH]c1CN1CCC2(CC1)CCN(C(=O)c1ccc3c(c1)C(NC(=O)c1cc(C(F)(F)F)ccc1Cl)CC3)C2 (stereo not shown) [IND_CC-655, 2-Chloro-N-[6-[8-[(5-methyl-3H-imidazol-4-yl)-methyl]-2,8-diazaspiro[4.5]-decane-2-carbonyl]-2,3-dihydro-1H-inden-1-yl]-5-(trifluoromethyl)-benzamide] | 59
8 | O=C(NC1CCc2ccc(C(=O)N3CCC4(CCN(Cc5csnn5)CC4)C3)cc21)c1cc(C(F)(F)F)ccc1Cl (stereo not shown) [IND_CC-656, 2-Chloro-N-[6-[8-([1,2,3]thiadiazol-4-yl-methyl)-2,8-diazaspiro[4.5]decane-2-carbonyl]-2,3-dihydro-1H-inden-1-yl]-5-(trifluoromethyl)-benzamide] | 51
9 | Cc1noc(C)c1CN1CCC2(CC1)CCN(C(=O)c1ccc3c(c1)C(NC(=O)c1cc(C(F)(F)F)ccc1Cl)CC3)C2 (stereo not shown) [IND_CC-657, 2-Chloro-N-[6-[8-[(3,5-dimethyl-isoxazol-4-yl)-methyl]-2,8-diazaspiro[4.5]-decane-2-carbonyl]-2,3-dihydro-1H-inden-1-yl]-5-(trifluoromethyl)-benzamide] | 66
10 | N#Cc1ccc(CN2CCC3(CC2)CCN(C(=O)c2ccc4c(c2)C(NC(=O)c2cc(C(F)(F)F)ccc2Cl)CC4)C3)cc1 (stereo not shown) [IND_CC-658, 2-Chloro-N-[6-[8-[(4-cyano-phenyl)-methyl]-2,8-diazaspiro[4.5]decane-2-carbonyl]-2,3-dihydro-1H-inden-1-yl]-5-(trifluoromethyl)-benzamide] | 51
11 | N#Cc1cccc(CN2CCC3(CC2)CCN(C(=O)c2ccc4c(c2)C(NC(=O)c2cc(C(F)(F)F)ccc2Cl)CC4)C3)c1 (stereo not shown) [IND_CC-659, 2-Chloro-N-[6-[8-[(3-cyano-phenyl)-methyl]-2,8-diazaspiro[4.5]decane-2-carbonyl]-2,3-dihydro-1H-inden-1-yl]-5-(trifluoromethyl)-benzamide] | 81
12 | N#Cc1ccccc1CN1CCC2(CC1)CCN(C(=O)c1ccc3c(c1)C(NC(=O)c1cc(C(F)(F)F)ccc1Cl)CC3)C2 (stereo not shown) [IND_CC-660, 2-Chloro-N-[6-[8-[(2-cyano-phenyl)-methyl]-2,8-diazaspiro[4.5]decane-2-carbonyl]-2,3-dihydro-1H-inden-1-yl]-5-(trifluoromethyl)-benzamide] | 50
13 | Cc1nc[nH]c1CN1CCC2(CC1)CCN(C(=O)c1ccc3c(c1)C(NC(=O)c1cc(C(F)(F)F)ccc1Cl)CC3)CC2 (stereo not shown) [IND_CC-661, 2-Chloro-N-[6-[9-[(5-methyl-3H-imidazol-4-yl)-methyl]-3,9-diazaspiro[5.5]-undecane-3-carbonyl]-2,3-dihydro-1H-inden-1-yl]-5-(trifluoromethyl)benzamide] | 95
14 | Cc1nc(CN2CCC3(CC2)CCN(C(=O)c2ccc4c(c2)C(NC(=O)c2cc(C(F)(F)F)ccc2Cl)CC4)CC3)c[nH]1 (stereo not shown) [IND_CC-662, 2-Chloro-N-[6-[9-[(2-methyl-1H-imidazol-4-yl)-methyl]-3,9-diazaspiro[5.5]-undecane-3-carbonyl]-2,3-dihydro-1H-inden-1-yl]-5-(trifluoromethyl)benzamide] | 76
15 | O=C(NC1CCc2ccc(C(=O)N3CCC4(CCN(Cc5csnn5)CC4)CC3)cc21)c1cc(C(F)(F)F)ccc1Cl (stereo not shown) [IND_CC-663, 2-Chloro-N-[6-[9-([1,2,3]thiadiazol-4-yl-methyl)-3,9-diazaspiro[5.5]undecane-3-carbonyl]-2,3-dihydro-1H-inden-1-yl]-5-(trifluoromethyl)-benzamide] | 85
16 | Cc1c(CN2CCC3(CC2)CCN(C(=O)c2ccc4c(c2)C(NC(=O)c2cc(C(F)(F)F)ccc2Cl)CC4)CC3)cnn1C (stereo not shown) [IND_CC-664, 2-Chloro-N-[6-[9-[(1,5-dimethyl-1H-pyrazol-4-yl)-methyl]-3,9-diazaspiro[5.5]-undecane-3-carbonyl]-2,3-dihydro-1H-inden-1-yl]-5-(trifluoromethyl)benzamide] | 54
17 | Cc1noc(C)c1CN1CCC2(CC1)CCN(C(=O)c1ccc3c(c1)C(NC(=O)c1cc(C(F)(F)F)ccc1Cl)CC3)CC2 (stereo not shown) [IND_CC-665, 2-Chloro-N-[6-[9-[(3,5-dimethyl-isoxazol-4-yl)-methyl]-3,9-diazaspiro[5.5]-undecane-3-carbonyl]-2,3-dihydro-1H-inden-1-yl]-5-(trifluoromethyl)benzamide] | 67
18 | N#Cc1ccc(CN2CCC3(CC2)CCN(C(=O)c2ccc4c(c2)C(NC(=O)c2cc(C(F)(F)F)ccc2Cl)CC4)CC3)cc1 (stereo not shown) [IND_CC-666, 2-Chloro-N-[6-[9-[(4-cyano-phenyl)-methyl]-3,9-diazaspiro[5.5]undecane-3-carbonyl]-2,3-dihydro-1H-inden-1-yl]-5-(trifluoromethyl)-benzamide] | 78
19 | N#Cc1cccc(CN2CCC3(CC2)CCN(C(=O)c2ccc4c(c2)C(NC(=O)c2cc(C(F)(F)F)ccc2Cl)CC4)CC3)c1 (stereo not shown) [IND_CC-667, 2-Chloro-N-[6-[9-[(3-cyano-phenyl)-methyl]-3,9-diazaspiro[5.5]undecane-3-carbonyl]-2,3-dihydro-1H-inden-1-yl]-5-(trifluoromethyl)-benzamide] | 85
20 | N#Cc1ccccc1CN1CCC2(CC1)CCN(C(=O)c1ccc3c(c1)C(NC(=O)c1cc(C(F)(F)F)ccc1Cl)CC3)CC2 (stereo not shown) [IND_CC-668, 2-Chloro-N-[6-[9-[(2-cyano-phenyl)-methyl]-3,9-diazaspiro[5.5]undecane-3-carbonyl]-2,3-dihydro-1H-inden-1-yl]-5-(trifluoromethyl)-benzamide] | 57
21 | O=C(NC1CCc2ccc(C(=O)N3CCC4(CCN(Cc5ccc(F)cc5Cl)CC4)CC3)cc21)c1cc(C(F)(F)F)ccc1Cl (stereo not shown) [IND_CC-669, 2-Chloro-N-[6-[9-[(2-chloro-4-fluoro-phenyl)-methyl]-3,9-diazaspiro[5.5]-undecane-3-carbonyl]-2,3-dihydro-1H-inden-1-yl]-5-(trifluoromethyl)benzamide] | 60
22 | O=C(NC1CCc2ccc(C(=O)N3CCC4(CCN(Cc5c(F)cccc5Cl)CC4)CC3)cc21)c1cc(C(F)(F)F)ccc1Cl (stereo not shown) [IND_CC-670, 2-Chloro-N-[6-[9-[(2-chloro-6-fluoro-phenyl)-methyl]-3,9-diazaspiro[5.5]-undecane-3-carbonyl]-2,3-dihydro-1H-inden-1-yl]-5-(trifluoromethyl)benzamide] | 67
23 | O=C(NC1CCc2ccc(C(=O)N3CCC4(CCN(Cc5ccc6ncccc6c5)CC4)C3)cc21)c1cc(Cl)ccc1F (stereo not shown) [IND_CC-671, 5-Chloro-2-fluoro-N-[6-[8-(quinolin-6-yl-methyl)-2,8-diazaspiro[4.5]decane-2-carbonyl]-2,3-dihydro-1H-inden-1-yl]-benzamide] | 80
24 | O=C(NC1CCc2ccc(C(=O)N3CCC4(CCN(Cc5ccc6nccnc6c5)CC4)C3)cc21)c1cc(Cl)ccc1F (stereo not shown) [IND_CC-672, 5-Chloro-2-fluoro-N-[6-[8-(quinoxalin-6-yl-methyl)-2,8-diazaspiro[4.5]decane-2-carbonyl]-2,3-dihydro-1H-inden-1-yl]-benzamide] | 88
25 | Cn1nnc2cc(CN3CCC4(CC3)CCN(C(=O)c3ccc5c(c3)C(NC(=O)c3cc(Cl)ccc3F)CC5)C4)ccc21 (stereo not shown) [IND_CC-673, 5-Chloro-2-fluoro-N-[6-[8-[(1-methyl-1H-benzotriazol-5-yl)-methyl]-2,8-diazaspiro[4.5]decane-2-carbonyl]-2,3-dihydro-1H-inden-1-yl]-benzamide] | 67
